Marks after values point to notes of the source that are not given here.
Tests used:
[1] = test system: rat CDHFD+NaNO2 NASH model; experiment: Rat CDHFD+NaNO2 NASH model, liver RNAseq; type: in vivo; details: 8 wk, Compound 3 3 mg/kg, Compound 1 25 mg/kg; for Down DEGs / Total DEGs / Up DEGs: liver RNAseq vs vehicle NASH control, adj. p<0.01, fold-change ≥1.5
Protocol: Animal handling: After arrival, the rats were left for a 2-week acclimation period, during which they were accustomed to the animal facility staff and trained on the procedure of oral gavage. After 2 weeks the animals were put on CHDFD (choline deficient high fat diet) and pre-fed for 4 weeks. Then the rats were started on treatment with test compounds, and 3× per week i.p. NaNO2 injections, while they remained on CDHFD, for an additional 8 weeks. NaNO2 was administered at 25 mg/kg i.p. dissolved in PBS 3 times a week (on Mondays, Wednesdays, and Fridays) for 8 weeks while on CDHFD.
Final Sacrifice: Half of the animals of each treatment group were terminated on day 84. The other half of the animals in each group were terminated on the following day, day 85. On the day of sacrifice the animals were fasted for 2 h and received a final treatment with the respective test substance. After the final compound treatment, the animals had no more access to food until sacrifice. At 4 h after the last administration all animals were sacrificed and livers were sampled for further analysis.
Animal handling: After arrival, the rats were left for a 2-week acclimation period, during which they were accustomed to the animal facility staff and trained on the procedure of oral gavage. After 2 weeks the animals were placed on a choline deficient high fat diet (CDHFD) and pre-fed for 4 weeks to induce steatosis and a NASH-like disease phenotype. Rats were then treated with test compounds for an additional 8 weeks while on CDHFD. Concomitant with compound treatment, rats were administered sodium nitrite (NaNO2, 25 mg/kg dissolved in PBS) by triweekly intraperitoneal (IP) injection to induce liver fibrosis.
Final Sacrifice: Half of the animals of each treatment group were terminated on day 84. The other half of the animals in each group were terminated on the following day, day 85. On the day of sacrifice the animals were fasted for 2 hours and received a final treatment with the respective test substance. After the final compound treatment, the animals had no more access to food until sacrifice. At 4 hours after the last administration all animals were sacrificed and livers were sampled for further analysis.
Sampling and analysis: Small liver pieces were harvested into RNAlater (Thermo Fisher Scientific Dreieich Germany) and stored at −20° C. prior to RNA sequencing (RNAseq) at MedGenome Inc. RNAseq analysis was performed on liver tissue by Illumina sequencing using standard methodologies. Briefly, RNAseq libraries (n=5 per group) were generated using Illumina Truseq stranded mRNA kits and sequencing was performed on a NovaSeq 6000 sequencer. Alignment was performed using STAR (v2.7.3a) aligner and reads mapping to ribosomal and mitochondrial genome were removed prior to alignment. Raw read counts were estimated using HTSeq (v0.11.1) and normalized using DESeq2 (v2.22.2). Differentially expressed genes (DEGs) were determined using DESeq2 (R Bioconductor package).

BCRP = biological target: T1, BCRP (Homo sapiens, UniProt Q9UNQ0)
T1 sequence (Q9UNQ0 1-655): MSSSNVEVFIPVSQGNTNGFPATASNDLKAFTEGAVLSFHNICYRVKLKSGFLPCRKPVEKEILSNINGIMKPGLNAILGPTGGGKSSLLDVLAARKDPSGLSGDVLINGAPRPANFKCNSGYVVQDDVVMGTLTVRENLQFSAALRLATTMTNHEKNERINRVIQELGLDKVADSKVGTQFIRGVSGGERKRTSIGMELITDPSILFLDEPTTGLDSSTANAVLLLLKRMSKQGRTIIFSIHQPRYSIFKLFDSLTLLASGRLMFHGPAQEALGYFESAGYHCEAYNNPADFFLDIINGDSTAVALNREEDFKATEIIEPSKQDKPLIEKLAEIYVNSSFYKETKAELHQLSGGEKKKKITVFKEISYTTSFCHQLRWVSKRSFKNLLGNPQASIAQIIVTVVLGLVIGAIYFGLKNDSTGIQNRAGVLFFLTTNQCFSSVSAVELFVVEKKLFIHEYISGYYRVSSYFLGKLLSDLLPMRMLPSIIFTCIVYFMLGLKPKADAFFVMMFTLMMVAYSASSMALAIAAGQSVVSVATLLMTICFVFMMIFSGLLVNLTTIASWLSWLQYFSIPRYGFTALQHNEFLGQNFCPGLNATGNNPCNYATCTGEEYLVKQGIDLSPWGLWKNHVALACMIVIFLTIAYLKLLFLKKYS

Compound	Down DEGs [1]	Total DEGs [1]	Up DEGs [1]	IC50 (BCRP) [µM]	Fabp2 differential gene expression relative to vehicle control ([1]; liver RNAseq)	Irs1 differential gene expression relative to vehicle control ([1]; liver RNAseq) [log2-fold change]	Irs2 differential gene expression relative to vehicle control ([1]; liver RNAseq) [log2-fold change]	Ldlr differential gene expression relative to vehicle control ([1]; liver RNAseq) [log2-fold change]	Ldlrap1 differential gene expression relative to vehicle control ([1]; liver RNAseq) [log2-fold change]	Lrp1 differential gene expression relative to vehicle control ([1]; liver RNAseq) [log2-fold change]	Lrp2 differential gene expression relative to vehicle control ([1]; liver RNAseq) [log2-fold change]	Ppara differential gene expression relative to vehicle control ([1]; liver RNAseq) [log2-fold change]	Ppargcla differential gene expression relative to vehicle control ([1]; liver RNAseq) [log2-fold change]	Rxra differential gene expression relative to vehicle control ([1]; liver RNAseq) [log2-fold change]	Slc27a1 differential gene expression relative to vehicle control ([1]; liver RNAseq) [log2-fold change]	Slc27a5 differential gene expression relative to vehicle control ([1]; liver RNAseq) [log2-fold change]	Vegfa differential gene expression relative to vehicle control ([1]; liver RNAseq) [log2-fold change]	Vegfc differential gene expression relative to vehicle control ([1]; liver RNAseq) [log2-fold change]	Vldlr differential gene expression relative to vehicle control ([1]; liver RNAseq) [log2-fold change]
COC1CCN(c2ncc(OC/C(=C/F)CN)cn2)CC1 [Compound 1, (E)-3-fluoro-2-(((2-(4-methoxypiperidin-1-yl)pyrimidin-5-yl)oxy)methyl)prop-2-en-1-amine]	641	847	206	–	–	–	–	–	–	–	–	–	–	–	–	–	–	–	–
N#Cc1nn(-c2cc(Cl)c(Oc3n[nH]c(=O)c4ccccc34)c(Cl)c2)c(=O)[nH]c1=O [Compound 2, 2-(3,5-dichloro-4-((4-oxo-3,4-dihydrophthalazin-1-yl)oxy)phenyl)-3,5-dioxo-2,3,4,5-tetrahydro-1,2,4-triazine-6-carbonitrile]	–	–	–	9.37	–	–	–	–	–	–	–	–	–	–	–	–	–	–	–
Cn1cc(C(=O)O)c2ccc(N3CCC(OCc4c(-c5c(Cl)cccc5Cl)noc4C4CC4)CC3)cc21 [Compound 3]	118	309	191	4.39	−1.02* log2-fold change	−0.03	0.27	0.4	−0.07	0.51	0.33	0.36	0.25	0.03	0.16	0.5	0.48	−0.28	−0.58

Source: US20230241071A1, “COMBINATION TREATMENT OF LIVER DISORDERS” (Terns Pharmaceuticals, Inc., priority 2021, published 2023)
